Read-outs that look alike come from different tables or passages of the source.
Experiments:
[1] = tested on: Leishmania amazonensis promastigotes; experiment: microbe, parasite or virus in culture; assay type: cell-based; details: for SI (CC50/EC50), promastigotes: CC50 J774A.1 / EC50 promastigotes; for EC50: Leishmania amazonensis
Method: (§1) Cells - Leishmania (L.) amazonensis (MHOM/BR/75/Josefa) and green fluorescent protein (GFP)-labelled L. amazonensis (IFLA/BR/67/PH8) reference strains in their promastigote form were grown in 24-well microtiter plates containing 2 mL of Grace’s insect medium supplemented with 20% heat-inactivated FCS, 2 mM L-glutamine, 100 U/mL penicillin, and 100 µg/mL streptomycin, as previously described.[11] ^, [12] The promastigotes were collected for the experiments when the highest proportion of infective metacyclics was reached (6th day of culture). The J774.A1 murine macrophage cell line was obtained from the cell bank of Rio de Janeiro (NCE/UFRJ). Macrophages were cultured in RPMI-1640 medium supplemented with 10% FCS, 2 mM L-glutamine, 100 U/mL penicillin, and 100 μg/mL streptomycin at 36.5 °C in a humidified incubator containing 5% CO2.
(§2) In vitro assays of antileishmanial activity and macrophage cytotoxicity - Parasites at different cell concentrations (5 x 10^6, 1 x 10^7, 1 x 10^8, and 1 x 10^9 cells/mL), or J774.A1 macrophages at 1 x 10^6 cells/mL, were treated with increasing concentrations of MIL or its analogues, TC387, TC388, and TC437 (Fig. 1), which were initially diluted in an ethanol/DMSO mixture (1:1, v/v) at 25 or 250 mg/mL and then diluted in culture medium supplemented with 10% FCS. Promastigote or macrophage samples (100 µL) containing six different concentrations of the compounds (5-160 μM for promastigotes and 200-6,400 μM for macrophages) were prepared in 96-well microtiter plates and incubated for 24 h at 26 °C for promastigotes or 36.5 °C for macrophages. Cell viability was quantified by measuring the reduction of MTT to formazan by mitochondrial reductases. Formazan absorbance was read on the enzyme-linked immunosorbent assay (ELISA) reader at 550 nm, and the half maximal effective concentration (EC50) or half-maximal cytotoxic concentration (CC50) values were determined based on the best fit of the sigmoidal curve on the absorbance data versus the compound concentrations.

[2] = Macrophage cytotoxicity (MTT cell viability); assay type: cell-based, murine; details: mouse, J774.A1 macrophages, J774A.1 cells
Method: as §1, §2

[3] = tested on: GFP-labelled L. amazonensis amastigotes within J774.A1 macrophages; experiment: microbe, parasite or virus in culture; assay type: cell-based, Leishmania amazonensis; details: for Minimum concentration required to significantly reduce the percentage of macrophages infected with GFP-expressing amastigotes / Minimum concentration required to significantly decrease the mean fluorescence intensity: 24 h of treatment; for Minimum concentration required to significantly reduce the percentage of macrophages infected with GFP-expressing amastigotes: % GFP+ cells; for Minimum concentration required to significantly decrease the mean fluorescence intensity: MFI; for SI (CC50/EC50), amastigotes: CC50 J774A.1 / EC50 amastigotes; for EC50: Leishmania amazonensis, intracellular amastigotes in J774.A1, 24 h treatment, % infected cells, read-out: EC50 ± SD, amastigotes
Method: J774.A1 macrophage infection - GFP-labelled L. amazonensis was cultivated in Grace’s insect medium supplemented as described above. The GFP-labelled parasites were selected using 30 μg/mL hygromycin B.[21] J774.A1 macrophages were cultured in RPMI-1640 medium supplemented with 10% FCS, 2 mM L-glutamine, 11 mM sodium bicarbonate, 100 U/mL penicillin, and 100 µg/mL streptomycin. A sample with 4 x 10^6 cells/mL was infected with GFP-L. amazonensis (five parasites/cell) from six-day cultures for 24 h. Following infection, the cells were washed with 1x phosphate-buffered saline (PBS) to remove non-internalised parasites and cultured for an additional 24 h in the presence of MIL or its analogues at different concentrations (7.5-240 μM).
After cooling to ~4 °C, samples were collected by mechanical harvesting of adherent cells, washed twice with 1x PBS, and fixed with 1% paraformaldehyde for flow cytometry analysis using a BD Accuri™ C6 Flow Cytometry instrument (BD Bioscience, San Jose, CA, USA). Macrophages were selected by forward versus side scatter (FSC vs SSC). The data were analysed using FCS Express software (De Novo Software^TM, Glendale, CA, USA). The percentage of cells expressing GFP^+ (% infected cells) and mean fluorescence intensity (estimated amount of internalised parasites) were evaluated. The mean EC50 values were determined based on the best-fit sigmoidal curve plotted for infection percentage versus compound concentration, considering the maximum and minimum percentages of infected cells.

[4] = tested on: plasma membranes of Leishmania amazonensis promastigotes; experiment: Best fit of eq. 3 to EC50 versus cell concentration (biophysical parameters); assay type: cell-based; details: for EC50: Leishmania amazonensis, read-out: cw50, concentration in the aqueous phase that inhibits parasite growth by half; for cm50, concentration in the membrane that inhibits parasite growth by half: from KM/W and cw50
Source text: In cell suspension assays, the concentration of lipophilic compounds within the membrane can exceed that in the aqueous medium by over 10,000-fold (Log KM/W > 4). In a well-diluted cell suspension, the quantity of compound associated with the membrane can be negligible due to the relatively small membrane volume; consequently, the compound predominantly resides in the aqueous phase, rendering its EC50 value effectively equivalent to its concentration in that phase, denoted as cw50. However, as cell concentration increases, the enhanced membrane volume results in a significant elevation of the EC50 compared to cw50. The equation that describes the variation of MIL EC50 values in relation to cell concentration in the assay has been derived and is expressed as follows:[10] ^, [11]
EC50=[(Vmc. cc)^-1+ KM/W/ (Vmc . cc)^-1+1)] cw50 (3)
Where Vmc is the estimated cell membrane volume for an L. amazonensis promastigote, previously estimated as 8.17 x 10^-13 mL,[11] and cc is the number of cells per mL. The parameters KM/W and cw50 are covariant in eq. 3, and their values can be determined as best-fit parameters of eq. For very dilute samples, the plasma membrane content is small, and the EC50 and cw50 values are practically the same; assuming in eq. 3 that (Vmc . cc)^-1 >> KM/W, the EC50 = ~cw50. For high concentrations of cells, a remarkable amount of the compound goes to the membrane, and the EC50 value is much higher than the cw50 value. The cm50 value can also be determined from the […] relationship.

[5] = tested on: L. amazonensis promastigotes; design: method as in Scariot et al. 13; details: ref Scariot et al. 13; cited from earlier work
[6] = tested on: amastigotes internalised within J774.A1 macrophages; design: method as in Scariot et al. 13; details: ref Scariot et al. 13; cited from earlier work
[7] = Haemolytic potential in whole blood; assay type: cell-based, human; details: human, whole blood reconstituted from plasma and blood cells, 24 h at 7 °C, read-out: Whole blood - % haemolysis
Method: (§3) Haemolytic potential in whole blood and PBS - Blood was collected from a university blood bank, adhering to an approved protocol by the Ethics Committee for Human and Animal Medical Research at Hospital das Clínicas, Universidade Federal de Goiás (CAAE: 81316417.1.0000.5078). To evaluate the haemolytic potential of MIL and its analogues (TC387, TC388, and TC437) in whole blood, plasma was separated by centrifugation at 1800 × g for 10 min at 4 °C. Next, 58 µL of plasma samples containing different concentrations of the compounds were prepared (in this case the compounds were diluted directly in blood plasma to final concentrations in the range of 2.5-12.5 mM), and 42 µL of the blood cells (100%) were added to each sample to reconstitute the whole blood. Samples were incubated for 24 h at 7 ± 1 °C, and several agitations were made in this period. After incubation, 1.4 mL PBS was added to each sample, and the tubes were centrifuged (3500 x g for 10 min). The percentage of haemolysis was determined based on the absorbance of haemoglobin in the supernatant at 540 nm relative to the sample without treatment (control). The compound concentration required for 50% haemolysis (HC50) was calculated by fitting the percentage of haemolysis versus compound concentration data to a sigmoidal curve.

whole blood = experiment: Haemolytic potential in whole blood; assay type: cell-based, human; details: 7.5 mM, 24 h at 7 °C
Method: as §3

[8] = Haemolytic potential in PBS; assay type: cell-based; details: human, washed erythrocytes in PBS, haematocrit 2%, 2 h at 36.5 °C, read-out: Erythrocytes in PBS - % haemolysis; for hemolysis at 2 h, 6.6 mM: 6.6 mM (22 times 300 µM)
Method: To assess the haemolytic potential in PBS, blood was initially diluted threefold in PBS and centrifuged at 800 × g for 10 min at 4 °C. Plasma and white blood cells were removed, and the remaining cells were resuspended in PBS. Erythrocytes were washed twice in PBS, discarding the supernatant after centrifugation. Erythrocytes were then added to a micellar suspension of the compounds at various concentrations in PBS (0.3-10 mM), achieving a final haematocrit of 2%. Samples were incubated for 2 h at 36.5 ± 1 °C, and haemolysis percentages and HC50 values were determined as described above.

[9] = 24 h, read-out: EC50 ± SD, promastigotes, 24 h at 26 °C, MTT
[10] = best-fit parameter of eq. 3, equivalent to EC50 for diluted samples

SMILES: CCCCCCCCCCCCCCCCOP(=O)([O-])OCC[N+](C)(C)C [MIL, hexadecylphosphocholine, reference compound]
- SI (CC50/EC50), promastigotes [1]: around 6
- SI (CC50/EC50), promastigotes ([1]; listed as Miltefosine): 6
- EC50 [1, 9]: 13 ± 3 µM
- EC50 ([1]; read-out: EC50, promastigotes, cell concentration 1 x 10^7 parasites/mL): ~13 µM
- EC50 ([1]; read-out: EC50, promastigotes, cell concentration 1 x 10^9 parasites/mL): ~660 µM
- CC50 at 24 h [2]: 77 ± 23 µM
- Minimum concentration required to significantly reduce the percentage of macrophages infected with GFP-expressing amastigotes [3]: 15 µM
- Minimum concentration required to significantly decrease the mean fluorescence intensity [3]: 15 µM
- SI (CC50/EC50), amastigotes [3]: 5
- EC50 [3]: 17 ± 3 µM
- EC50 [4, 10]: 9.4 ± 1.2 µM
- cm50, concentration in the membrane that inhibits parasite growth by half [4]: 0.81 ± 0.07 (B) M
- IC50 [5]: 21 µM
- IC50 [6]: 2 µM

SMILES: COc1cccc(CCCCCCCCOP(=O)([O-])OCC[N+](C)(C)C)c1 [TC387]
- SI (CC50/EC50), promastigotes [1]: 34
- EC50 [1, 9]: 27 ± 9 µM
- CC50 at 24 h [2]: 956 ± 277 µM
- Minimum concentration required to significantly reduce the percentage of macrophages infected with GFP-expressing amastigotes [3]: 7.5 µM
- Minimum concentration required to significantly decrease the mean fluorescence intensity [3]: 7.5 µM
- SI (CC50/EC50), amastigotes [3]: 80
- EC50 [3]: 12 ± 3 µM
- hemolysis at 24 h, 7.5 mM [7]: 20.5%
- hemolysis at 24 h, 10 mM [7]: 75.3%
- Whole blood - % haemolysis (whole blood): 22.5 ± 3.7%
- hemolysis at 2 h, 3.3 mM [8]: 26.2%
- hemolysis at 2 h, 6.6 mM [8]: < 50%
- hemolysis at 2 h, 10 mM [8]: 60.4%
- EC50 [4, 10]: 27.2 ± 2.9 µM
- cm50, concentration in the membrane that inhibits parasite growth by half [4]: 0.53 ± 0.09 (A) M

SMILES: COC(=O)c1c(CCCCCCCCOP(=O)([O-])OCC[N+](C)(C)C)cccc1OC [TC388]
- SI (CC50/EC50), promastigotes [1]: 42
- EC50 [1, 9]: 39 ± 11 µM
- CC50 at 24 h [2]: 1630 ± 404 µM
- Minimum concentration required to significantly reduce the percentage of macrophages infected with GFP-expressing amastigotes [3]: 7.5 µM
- Minimum concentration required to significantly decrease the mean fluorescence intensity [3]: 7.5 µM
- EC50 [3]: 10 ± 2 µM
- hemolysis at 24 h, 10 mM [7]: 14.5%
- hemolysis at 24 h, 12.5 mM ([7]; 12.5 mM): 24.2 ± 6.4%
- hemolysis at 2 h, 3.3 mM [8]: 8.5%
- hemolysis at 2 h, 10 mM [8]: 25.3%
- EC50 [4, 10]: 38.9 ± 3.8 µM
- cm50, concentration in the membrane that inhibits parasite growth by half [4]: 0.50 ± 0.13 (A) M

SMILES: COc1cc(CCCCCCCCOP(=O)([O-])OCC[N+](C)(C)C)cc(OC)c1 [TC437]
- SI (CC50/EC50), promastigotes [1]: 29
- EC50 [1, 9]: 24 ± 7 µM
- CC50 at 24 h [2]: 692 ± 212 µM
- Minimum concentration required to significantly reduce the percentage of macrophages infected with GFP-expressing amastigotes [3]: 15 µM
- Minimum concentration required to significantly decrease the mean fluorescence intensity [3]: 7.5 µM
- SI (CC50/EC50), amastigotes [3]: 43
- EC50 [3]: 16 ± 3 µM
- hemolysis at 24 h, 7.5 mM [7]: 40.6 ± 7.4%
- hemolysis at 24 h, 10 mM [7]: 92.5%
- hemolysis at 2 h, 3.3 mM [8]: 29.8%
- hemolysis at 2 h, 6.6 mM [8]: < 50%
- hemolysis at 2 h, 10 mM [8]: 65.4%
- EC50 [4]: 22.8 ± 3.7 µM
- cm50, concentration in the membrane that inhibits parasite growth by half [4]: 0.56 ± 0.11 (A) M
